The target in assay [1] is KDR (h) (Homo sapiens, UniProt P35968). The assay can be described thus: KDR (VEGFR2) (enzymatic assay), TR-FRET. In kind it is biochemical. The following applies: 3 μM ATP, 120 min; pIC50 = -log IC50 (M); average if tested multiple times; read-out: VEGFR KDR pIC50 (converted). An outline of the steps:
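Recombinant human KDR (150 ng/ml) phosphorylated 500 nM Btn-Flt3 with 3 μM ATP in HEPES pH 7.5/MnCl2 buffer, 1% DMSO, 120 min at room temperature; EDTA stop with Eu-anti-P-Tyr/SA-XL665 detection, TR-FRET read. IC50 and pIC50 derived from compound concentrations spanning 10 μM to 0.1 nM.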

Assay [2] deals with FGFR1 (h) (Homo sapiens, UniProt P11362). Description: FGFR1 (enzymatic assay), TR-FRET. In kind it is biochemical. The following applies: FGFR 1 pIC50, 5 μM ATP, 60 min; pIC50 = -log IC50 (M); average if tested multiple times.
FGFR1 (h), sequence (P11362 22-822): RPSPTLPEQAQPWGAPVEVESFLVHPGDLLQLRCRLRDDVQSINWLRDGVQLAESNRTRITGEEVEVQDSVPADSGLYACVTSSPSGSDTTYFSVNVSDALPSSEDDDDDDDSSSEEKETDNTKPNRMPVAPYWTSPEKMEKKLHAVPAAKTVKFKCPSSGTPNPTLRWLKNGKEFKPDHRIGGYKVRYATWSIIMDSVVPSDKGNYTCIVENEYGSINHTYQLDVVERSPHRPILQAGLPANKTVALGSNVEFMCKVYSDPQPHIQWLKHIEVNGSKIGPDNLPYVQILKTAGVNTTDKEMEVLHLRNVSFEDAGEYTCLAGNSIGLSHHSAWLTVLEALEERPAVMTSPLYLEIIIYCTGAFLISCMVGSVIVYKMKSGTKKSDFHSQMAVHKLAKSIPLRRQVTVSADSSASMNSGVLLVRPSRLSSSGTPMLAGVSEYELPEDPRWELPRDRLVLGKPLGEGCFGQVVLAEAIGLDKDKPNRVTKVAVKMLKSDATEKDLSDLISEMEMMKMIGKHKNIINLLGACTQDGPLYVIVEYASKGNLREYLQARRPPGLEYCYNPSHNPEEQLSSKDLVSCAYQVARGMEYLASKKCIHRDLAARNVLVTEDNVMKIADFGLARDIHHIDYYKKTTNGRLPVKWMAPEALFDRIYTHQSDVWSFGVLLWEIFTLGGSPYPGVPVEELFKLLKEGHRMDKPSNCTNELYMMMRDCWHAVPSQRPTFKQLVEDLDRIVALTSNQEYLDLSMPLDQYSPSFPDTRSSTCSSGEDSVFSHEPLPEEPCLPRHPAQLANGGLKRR
Assay [3] deals with T1, Ba/F3-Flt3-transfected cells (Homo sapiens, UniProt P36888, cells depend on it, form not given).
T1 construct: BAF3-FLT3 (MIN IL3 Alamar Blue pIC50); other: minus IL3; 24 hours, Alamar Blue
T1 sequence (P36888 1-993): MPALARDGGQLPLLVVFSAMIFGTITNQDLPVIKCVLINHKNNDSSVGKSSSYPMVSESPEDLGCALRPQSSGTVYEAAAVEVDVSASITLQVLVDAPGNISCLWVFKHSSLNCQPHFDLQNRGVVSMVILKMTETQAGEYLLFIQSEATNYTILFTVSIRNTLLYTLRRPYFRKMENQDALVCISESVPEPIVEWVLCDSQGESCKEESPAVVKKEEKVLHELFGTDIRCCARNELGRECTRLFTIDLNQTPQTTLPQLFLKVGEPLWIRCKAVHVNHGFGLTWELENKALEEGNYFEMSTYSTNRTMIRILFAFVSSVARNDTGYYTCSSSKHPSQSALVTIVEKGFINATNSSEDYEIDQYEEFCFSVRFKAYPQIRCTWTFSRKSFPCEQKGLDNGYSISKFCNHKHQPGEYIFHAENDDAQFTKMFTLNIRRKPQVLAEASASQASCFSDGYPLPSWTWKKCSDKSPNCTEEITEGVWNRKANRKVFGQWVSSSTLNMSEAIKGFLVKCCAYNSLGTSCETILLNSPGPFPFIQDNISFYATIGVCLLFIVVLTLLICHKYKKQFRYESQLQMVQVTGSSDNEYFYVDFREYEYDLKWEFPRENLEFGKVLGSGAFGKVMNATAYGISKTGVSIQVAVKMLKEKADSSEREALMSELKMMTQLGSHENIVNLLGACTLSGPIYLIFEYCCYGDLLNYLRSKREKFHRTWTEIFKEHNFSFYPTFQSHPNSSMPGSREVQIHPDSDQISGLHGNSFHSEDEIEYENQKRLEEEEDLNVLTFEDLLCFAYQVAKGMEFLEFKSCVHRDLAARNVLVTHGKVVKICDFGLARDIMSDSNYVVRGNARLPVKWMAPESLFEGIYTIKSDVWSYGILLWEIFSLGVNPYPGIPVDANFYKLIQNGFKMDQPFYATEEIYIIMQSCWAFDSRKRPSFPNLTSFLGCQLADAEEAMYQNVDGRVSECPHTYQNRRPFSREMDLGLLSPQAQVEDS
Description: Ba/F3-Flt3 (minus IL3 or plus IL3) cellular proliferation assay, Alamar Blue. The class given is cell-based. The following applies: minus IL3, 24 hours. Here is the method:
Ba/F3-Flt3 (Minus IL3 or Plus IL3) (Cellular Proliferation Assay)
In a 384 well plate, 100 nl of compound dilution in DMSO was sprayed before adding 50 μl cell culture medium (phenol red free RPMI-1640, 10% FBS, 2 mM L-Glutamine and 50 μg/ml Gentamycin) containing 20000 cells per well of Ba/F3-Flt3-transfected cells. Cells were put in an incubator at 37° C. and 5% CO2. After 24 hours, 10 μl of Alamar Blue solution (0.5 mM K3Fe(CN)6, 0.5 mM K4Fe(CN)6, 0.15 mM Resazurin and 100 mM Phosphate Buffer) was added to the wells, incubated for 4 hours at 37° C. and 5% CO2 before RFU's (Relative Fluorescence Units) (ex. 540 nm., em. 590 nm.) were measured in a fluorescence plate reader.
In this assay, the inhibitory effect of different compound concentrations (range 10 μM to 0.1 nM) was determined and used to calculate an IC50 (M) and pIC50 (−log IC50) value. As a counterscreen the same experiment was performed in the presence of 10 ng/ml murine IL3.

The test system of assay [4] is Ba/F3-FGFR3-transfected cells. The assay can be described thus: Ba/F3-FGFR3 (minus IL3 or plus IL3) cellular proliferation assay, Alamar Blue. The class given is cell-based. Conditions: read-out: BAF3-FGFR3 (PLUS IL3 Alamar Blue pIC50) (converted). The gist of the method:
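Ba/F3-FGFR3 cells (20000 per well) in phenol red-free RPMI-1640 with 10% FBS were exposed to compound (10 μM to 0.1 nM) for 24 h at 37° C. Alamar Blue was then added for 4 h and fluorescence read (ex 540, em 590 nm) to give IC50/pIC50; the counterscreen was run with 10 ng/ml murine IL3.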

[5] abbreviates: plus IL3 (10 ng/ml murine IL3, counterscreen), 24 hours, Alamar Blue.

Molecules are shown by their SMILES. Where two headings read alike, the source gives them in different places.

KDR (h), sequence (P35968 20-1356): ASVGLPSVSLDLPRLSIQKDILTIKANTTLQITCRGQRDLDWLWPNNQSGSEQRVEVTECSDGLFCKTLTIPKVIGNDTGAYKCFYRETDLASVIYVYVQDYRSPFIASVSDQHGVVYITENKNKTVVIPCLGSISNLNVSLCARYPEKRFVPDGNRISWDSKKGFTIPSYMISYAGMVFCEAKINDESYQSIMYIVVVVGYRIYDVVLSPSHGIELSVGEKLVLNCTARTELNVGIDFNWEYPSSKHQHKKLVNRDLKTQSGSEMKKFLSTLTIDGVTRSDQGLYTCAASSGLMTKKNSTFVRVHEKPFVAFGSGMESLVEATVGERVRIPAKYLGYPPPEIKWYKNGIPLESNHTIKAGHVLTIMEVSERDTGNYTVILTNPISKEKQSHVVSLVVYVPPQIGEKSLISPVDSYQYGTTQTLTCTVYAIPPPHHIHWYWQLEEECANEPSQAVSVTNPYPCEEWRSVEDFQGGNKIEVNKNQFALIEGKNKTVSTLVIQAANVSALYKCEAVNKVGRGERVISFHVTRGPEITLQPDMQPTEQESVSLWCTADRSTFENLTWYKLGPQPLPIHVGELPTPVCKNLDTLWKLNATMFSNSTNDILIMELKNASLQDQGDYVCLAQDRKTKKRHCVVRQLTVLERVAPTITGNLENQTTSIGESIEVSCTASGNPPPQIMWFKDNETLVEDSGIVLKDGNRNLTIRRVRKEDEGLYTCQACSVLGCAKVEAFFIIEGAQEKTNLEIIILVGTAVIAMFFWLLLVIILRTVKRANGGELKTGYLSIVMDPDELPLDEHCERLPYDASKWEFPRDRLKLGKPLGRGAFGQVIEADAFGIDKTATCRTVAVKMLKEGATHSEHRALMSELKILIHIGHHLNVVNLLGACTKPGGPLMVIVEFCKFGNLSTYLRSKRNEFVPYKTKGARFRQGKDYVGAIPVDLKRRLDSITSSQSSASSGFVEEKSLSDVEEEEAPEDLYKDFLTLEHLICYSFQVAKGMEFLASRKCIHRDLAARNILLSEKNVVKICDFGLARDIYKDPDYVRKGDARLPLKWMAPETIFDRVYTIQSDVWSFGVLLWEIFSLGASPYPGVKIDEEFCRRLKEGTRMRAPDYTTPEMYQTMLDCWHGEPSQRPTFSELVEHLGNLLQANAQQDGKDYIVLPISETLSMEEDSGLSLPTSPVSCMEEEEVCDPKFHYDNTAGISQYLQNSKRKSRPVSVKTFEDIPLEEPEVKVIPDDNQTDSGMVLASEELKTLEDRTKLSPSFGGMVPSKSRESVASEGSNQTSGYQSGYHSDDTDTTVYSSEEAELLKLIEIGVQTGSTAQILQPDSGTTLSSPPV

For the compound `COc1cc(OC)cc(N(Cc2ncc[nH]2)c2ccc3ncc(-c4cnn(C)c4)cc3c2)c1` [Compound 18], the IC50 in assay [1] is 1.15e-07 M; in assay [2], 2.75e-09 M; in assay [4] (setting [5]), more than 10000 nM. Further, the “BAF3-FLT3 (MIN IL3 Alamar Blue pIC50)” value in assay [3] was less than 5.

Turning to `COc1cc(OC)cc(N(Cc2ncc[nH]2)c2ccc3ncc(-c4cccnc4)cc3c2)c1` [Compound 59], the IC50 is 8.51e-07 M in assay [1], 4.68e-09 M in assay [2] and more than 10000 nM in assay [4] (setting [5]). For the same compound, the “BAF3-FLT3 (MIN IL3 Alamar Blue pIC50)” value in assay [3] is less than 5.

For `COc1cc(OC)cc(N(CCCN)c2ccc3ncc(-c4cnn(C)c4)cc3c2)c1` [Compound 11], the IC50 in assay [1] is 4.47e-08 M; in assay [2], 3.63e-09 M; in assay [4] (setting [5]), more than 10000 nM. Also, in assay [3], the “BAF3-FLT3 (MIN IL3 Alamar Blue pIC50)” value was less than 5.

As for `COc1cc(OC)cc(C(O)c2ccc3ncc(-c4cnn(C)c4)cc3c2)c1` (centres unmarked) [Compound 12], the IC50 was more than 1e-06 M in assay [1], 2.95e-07 M in assay [2] and more than 10000 nM in assay [4] (24 h). For the same compound, the “BAF3-FLT3 (MIN IL3 Alamar Blue pIC50)” value in assay [3] is given as less than 5.47.

In the case of `COc1cc(OC)cc(N(CCNC(C)C)c2ccc3ncc(-c4cnn(C5CCCCO5)c4)cc3c2)c1` (centres unmarked) [Compound 22], the IC50 was 4.37e-08 M in assay [1], 1.2e-09 M in assay [2] and more than 10000 nM in assay [4] (setting [5]). Further, in assay [3], the “BAF3-FLT3 (MIN IL3 Alamar Blue pIC50)” value is on record as 5.22.

The values are drawn from patent US10039759B2, “Quinolines as FGFR kinase modulators” (priority 2011, dated 2018).
